Measurements as given in patent US20250019387A1 (Frontier Medicines Corporation, priority 0001, published 2025).
Read-outs that look alike come from different tables or passages of the source.

Target: KRAS G12C and cRAF (Ras-binding domain) interaction (Homo sapiens (Human), UniProt P01116, C118S/C51S/C80L/G12C)
Assay: Inhibition of KRAS G12C and cRAF binding (AlphaScreen)
In short: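 IC50 values come from 4-parameter nonlinear regression of AlphaScreen signal (680 nm excitation, 570 nm emission). Compound plates sat 19-20 h at room temperature before RBD and donor/acceptor beads were added in Hepes pH 7.4 buffer with 150 mM NaCl, 5 mM MgCl2, 2% DMSO for 60-90 min; biotin-AviTag-GST replaced RBD to flag assay-technology interferers.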

[1] = GMPPNP-loaded KRAS G12C, 19-20 hours incubation with compound, read-out: IC50 (Inhibition of KRAS G12C and cRAF Binding)

Chain of KRAS G12C and cRAF (Ras-binding domain) interaction (P01116 other isoform, or with tags, fused parts or gaps G12C/C51S/C80L/C118S): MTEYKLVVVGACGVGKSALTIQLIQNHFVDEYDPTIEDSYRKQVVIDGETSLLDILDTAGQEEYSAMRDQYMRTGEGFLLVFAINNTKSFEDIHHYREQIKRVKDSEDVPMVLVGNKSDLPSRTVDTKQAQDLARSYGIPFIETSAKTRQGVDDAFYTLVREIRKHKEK

Compound | IC50 [µM] | IC50 [1] [µM]
C=CC(=O)N1CC[C@@H](N(CC(F)F)c2nc(OC[C@@]34CCCN3C[C@H](F)C4)nc3c(F)c(-c4cccc5cccc(Cl)c45)ncc23)C1 [Example 194, 1-((R)-3-((7-(8-chloronaphthalen-1-yl)-8-fluoro-2-(((2R,7aS)-2-fluorotetrahydro-1H-pyrrolizin-7a(5H)-yl)methoxy)pyrido[4,3-d]pyrimidin-4-yl)(2,2-difluoroethyl)amino)pyrrolidin-1-yl)prop-2-en-1-one] | 0.01 to 0.1 | 
C=CC(=O)N1CC[C@@H](N(C)c2nc(OC[C@@]34CCCN3C[C@H](F)C4)nc3c(F)c(-c4cccc5ccc(F)c(C)c45)ncc23)C1 [Example 195, 1-((R)-3-((8-fluoro-7-(7-fluoro-8-methylnaphthalen-1-yl)-2-(((2R,7aS)-2-fluorotetrahydro-1H-pyrrolizin-7a(5H)-yl)methoxy)pyrido[4,3-d]pyrimidin-4-yl)(methyl)amino)pyrrolidin-1-yl)prop-2-en-1-one] |  | 0.01 to 0.1
CCc1c(F)ccc2cccc(-c3ncc4c(N(C)[C@@H]5CCN(C(=O)/C=C/[C@H]6CCN6C)C5)nc(OC[C@@]56CCCN5C[C@H](F)C6)nc4c3F)c12 [Example 196, (E)-1-((R)-3-((7-(8-ethyl-7-fluoronaphthalen-1-yl)-8-fluoro-2-(((2R,7aS)-2-fluorotetrahydro-1H-pyrrolizin-7a(5H)-yl)methoxy)pyrido[4,3-d]pyrimidin-4-yl)(methyl)amino)pyrrolidin-1-yl)-3-((R)-1-methylazetidin-2-yl)prop-2-en-1-one] |  | 0.01 to 0.1
CN(c1nc(OC[C@@]23CCCN2C[C@H](F)C3)nc2c(F)c(-c3cccc4cccc(Cl)c34)ncc12)[C@@H]1CCN(C(=O)C#C[C@@]2(C)CCCN2C)C1 [Example 197, 1-((R)-3-((7-(8-chloronaphthalen-1-yl)-8-fluoro-2-(((2R,7aS)-2-fluorohexahydro-1H-pyrrolizin-7a-yl)methoxy)pyrido[4,3-d]pyrimidin-4-yl)(methyl)amino)pyrrolidin-1-yl)-3-((R)-1,2-dimethylpyrrolidin-2-yl)prop-2-yn-1-one] |  | 0.01 to 0.1
Cc1nccc(/C=C/C(=O)N2CCC[C@@H](N(C)c3nc(OC[C@@]45CCCN4C[C@H](F)C5)nc4c(F)c(-c5cccc6cccc(Cl)c56)ncc34)C2)n1 [Example 198, (E)-1-((R)-3-((7-(8-chloronaphthalen-1-yl)-8-fluoro-2-(((2R,7aS)-2-fluorotetrahydro-1H-pyrrolizin-7a(5H)-yl)methoxy)pyrido[4,3-d]pyrimidin-4-yl)(methyl)amino)piperidin-1-yl)-3-(2-methylpyrimidin-4-yl)prop-2-en-1-one] |  | > 0.5
CN1CC[C@@H]1/C=C/C(=O)N1C[C@H](F)[C@@H](N(C)c2nc(OC[C@@]34CCCN3C[C@H](F)C4)nc3c(F)c(-c4cccc5ccc(F)c(F)c45)ncc23)C1 [Example 199, (E)-1-((3S,4S)-3-((7-(7,8-difluoronaphthalen-1-yl)-8-fluoro-2-(((2R,7aS)-2-fluorotetrahydro-1H-pyrrolizin-7a(5H)-yl)methoxy)pyrido[4,3-d]pyrimidin-4-yl)(methyl)amino)-4-fluoropyrrolidin-1-yl)-3-((R)-1-methylazetidin-2-yl)prop-2-en-1-one] |  | < 0.01
C#Cc1c(F)ccc2cccc(-c3ncc4c(N(C)[C@@H]5CCN(C(=O)/C=C/[C@H]6CCN6C)C5)nc(OC[C@@]56CCCN5C[C@H](F)C6)nc4c3F)c12 [Example 200, (E)-1-((R)-3-((7-(8-ethynyl-7-fluoronaphthalen-1-yl)-8-fluoro-2-(((2R,7aS)-2-fluorohexahydro-1H-pyrrolizin-7a-yl)methoxy)pyrido[4,3-d]pyrimidin-4-yl)(methyl)amino)pyrrolidin-1-yl)-3-((R)-1-methylazetidin-2-yl)prop-2-en-1-one] |  | < 0.01
C#Cc1c(F)ccc2cccc(-c3ncc4c(N(C)[C@@H]5CCN(C(=O)/C=C/CN(C)C)C5)nc(OC[C@@]56CCCN5C[C@H](F)C6)nc4c3F)c12 [Example 201, (E)-4-(dimethylamino)-1-((R)-3-((7-(8-ethynyl-7-fluoronaphthalen-1-yl)-8-fluoro-2-(((2R,7aS)-2-fluorohexahydro-1H-pyrrolizin-7a-yl)methoxy)pyrido[4,3-d]pyrimidin-4-yl)(methyl)amino)pyrrolidin-1-yl)but-2-en-1-one] |  | < 0.01
Cc1c(F)ccc2cccc(-c3ncc4c(N(C)[C@@H]5CCN(C(=O)/C=C/CN(C)C)C5)nc(OC[C@@]56CCCN5C[C@H](F)C6)nc4c3F)c12 [Example 202, (E)-4-(dimethylamino)-1-((R)-3-((8-fluoro-7-(7-fluoro-8-methylnaphthalen-1-yl)-2-(((2R,7aS)-2-fluorotetrahydro-1H-pyrrolizin-7a(5H)-yl)methoxy)pyrido[4,3-d]pyrimidin-4-yl)(methyl)amino)pyrrolidin-1-yl)but-2-en-1-one] |  | 0.01 to 0.1
Cc1cc(/C=C/C(=O)N2CC[C@@H](N(C)c3nc(OC[C@@]45CCCN4C[C@H](F)C5)nc4c(F)c(-c5cccc6ccc(F)c(F)c56)ncc34)C2)nc(C)n1 [Example 203, (E)-1-((R)-3-((7-(7,8-difluoronaphthalen-1-yl)-8-fluoro-2-(((2R,7aS)-2-fluorohexahydro-1H-pyrrolizin-7a-yl)methoxy)pyrido[4,3-d]pyrimidin-4-yl)(methyl)amino)pyrrolidin-1-yl)-3-(2,6-dimethylpyrimidin-4-yl)prop-2-en-1-one] |  | 0.01 to 0.1
Cc1cc(/C=C/C(=O)N2CC[C@@H](N(C)c3nc(OC[C@@]45CCCN4C[C@H](F)C5)nc4c(F)c(-c5cccc6cccc(Cl)c56)ncc34)C2)nc(C)n1 [Example 204, (E)-1-((R)-3-((7-(8-chloronaphthalen-1-yl)-8-fluoro-2-(((2R,7aS)-2-fluorohexahydro-1H-pyrrolizin-7a-yl)methoxy)pyrido[4,3-d]pyrimidin-4-yl)(methyl)amino)pyrrolidin-1-yl)-3-(2,6-dimethylpyrimidin-4-yl)prop-2-en-1-one] |  | 0.1 to 0.5
Cc1c(F)ccc2cccc(-c3ncc4c(N(C)[C@@H]5CCN(C(=O)/C=C/[C@H]6CCN6C)C5)nc(OC[C@@]56CCCN5C[C@H](F)C6)nc4c3F)c12 [Example 206, (E)-1-((R)-3-((8-fluoro-7-(7-fluoro-8-methylnaphthalen-1-yl)-2-(((2R,7aS)-2-fluorotetrahydro-1H-pyrrolizin-7a(5H)-yl)methoxy)pyrido[4,3-d]pyrimidin-4-yl)(methyl)amino)pyrrolidin-1-yl)-3-((R)-1-methylazetidin-2-yl)prop-2-en-1-one] |  | 0.01 to 0.1
C#Cc1c(F)ccc2cccc(-c3ncc4c(N(C)[C@@H]5CCN(C(=O)/C=C/c6cc(C)nc(C)n6)C5)nc(OC[C@@]56CCCN5C[C@H](F)C6)nc4c3F)c12 [Example 207, (E)-3-(2,6-dimethylpyrimidin-4-yl)-1-((R)-3-((7-(8-ethynyl-7-fluoronaphthalen-1-yl)-8-fluoro-2-(((2R,7aS)-2-fluorotetrahydro-1H-pyrrolizin-7a(5H)-yl)methoxy)pyrido[4,3-d]pyrimidin-4-yl)(methyl)amino)pyrrolidin-1-yl)prop-2-en-1-one] |  | 0.01 to 0.1
CN(c1nc(OC[C@@]23CCCN2C[C@H](F)C3)nc2c(F)c(-c3cccc4cccc(Cl)c34)ncc12)[C@@H]1CCN(C(=O)/C=C/c2nc(C3(F)CCC3)no2)C1 [Example 208, (E)-1-((R)-3-((7-(8-chloronaphthalen-1-yl)-8-fluoro-2-(((2R,7aS)-2-fluorotetrahydro-1H-pyrrolizin-7a(5H)-yl)methoxy)pyrido[4,3-d]pyrimidin-4-yl)(methyl)amino)pyrrolidin-1-yl)-3-(3-(1-fluorocyclobutyl)-1,2,4-oxadiazol-5-yl)prop-2-en-1-one] |  | < 0.01
CN(c1nc(OC[C@@]23CCCN2C[C@H](F)C3)nc2c(F)c(-c3cccc4ccc(F)c(Cl)c34)ncc12)[C@@H]1CCN(C(=O)C#CCN2CC(F)(F)C2)C1 [Example 209, 1-((R)-3-((7-(8-chloro-7-fluoronaphthalen-1-yl)-8-fluoro-2-(((2R,7aS)-2-fluorohexahydro-1H-pyrrolizin-7a-yl)methoxy)pyrido[4,3-d]pyrimidin-4-yl)(methyl)amino)pyrrolidin-1-yl)-4-(3,3-difluoroazetidin-1-yl)but-2-yn-1-one] |  | 0.01 to 0.1
CC(C)N1CC[C@@H]1/C=C/C(=O)N1CC[C@@H](N(C)c2nc(OC[C@@]34CCCN3C[C@H](F)C4)nc3c(F)c(-c4cccc5ccc(F)c(Cl)c45)ncc23)C1 [Example 211, (E)-1-((R)-3-((7-(8-chloro-7-fluoronaphthalen-1-yl)-8-fluoro-2-(((2R,7aS)-2-fluorotetrahydro-1H-pyrrolizin-7a(5H)-yl)methoxy)pyrido[4,3-d]pyrimidin-4-yl)(methyl)amino)pyrrolidin-1-yl)-3-((R)-1-isopropylazetidin-2-yl)prop-2-en-1-one] |  | 0.01 to 0.1
COCCN1CC[C@@H]1/C=C/C(=O)N1CC[C@@H](N(C)c2nc(OC[C@@]34CCCN3C[C@H](F)C4)nc3c(F)c(-c4cccc5ccc(F)c(Cl)c45)ncc23)C1 [Example 212, (E)-1-((R)-3-((7-(8-chloro-7-fluoronaphthalen-1-yl)-8-fluoro-2-(((2R,7aS)-2-fluorotetrahydro-1H-pyrrolizin-7a(5H)-yl)methoxy)pyrido[4,3-d]pyrimidin-4-yl)(methyl)amino)pyrrolidin-1-yl)-3-((R)-1-(2-methoxyethyl)azetidin-2-yl)prop-2-en-1-one] |  | 0.01 to 0.1
CN(c1nc(OC[C@@]23CCCN2C[C@H](F)C3)nc2c(F)c(-c3cccc4ccc(F)c(Cl)c34)ncc12)[C@@H]1CCN(C(=O)/C=C/[C@H]2CCN2CC2COC2)C1 [Example 213, (E)-1-((R)-3-((7-(8-chloro-7-fluoronaphthalen-1-yl)-8-fluoro-2-(((2R,7aS)-2-fluorotetrahydro-1H-pyrrolizin-7a(5H)-yl)methoxy)pyrido[4,3-d]pyrimidin-4-yl)(methyl)amino)pyrrolidin-1-yl)-3-((R)-1-(oxetan-3-ylmethyl)azetidin-2-yl)prop-2-en-1-one] |  | 0.01 to 0.1
